# Reference: US20240366611A1, “METHODS OF TREATING A DISEASE OR DISORDER” (Ascentage Pharma (Suzhou) Co., Ltd., priority 2021, published 2024)
# Key:
# HbF in human CD34+ HSC = assay: HbF concentration in human CD34+ HSC by ELISA; format: cell-based; conditions: 7 days of treatment
# Procedure: (§1) Human cord blood CD34+ hematopoietic stem cells (HSC) were first expanded in the expansion medium (StemSpan SFEM II+StemSpan CD34 Expansion Supplement) to achieve the desired number of cells, and then differentiated in differentiation medium (StemSpan SFEM II+StemSpan Erythroid Expansion Supplement (100×)) for three days without drug treatment. Various concentrations of Cpd. 73 were added on the fourth day of differentiation and further incubated with the cells for another 7 days. 33 mM Hydroxyurea was used as the control.
# After 7 days of treatment, the cells were collected and lysed. The concentration of HbF in the cell lysate was determined using a Human Fetal Hemoglobin (HBF) ELISA Kit (MyBioSource, MBS2024474). […] The cellular HbF concentration were 1.27-, 1.39-, 1.52-, 1.58- and 1.69-folds of the vehicle group when the cells were treated with 0.01 μM, 0.03 μM, 0.1 μM, 0.3 μM and 1.0 μM Cpd. 73 respectively. […] 73 where the cellular HbF concentration was 1.69-folds of the vehicle group (p<0.01). HbF concentration of cells treated with 33 mM Hydroxyurea was 1.18-folds of the vehicle group. Clinically, small increases of HbF concentration (1-5%) have the potential to provide clinical benefits to all SCD patients.
# [1] = test system: HbF+ cells in human CD34+ HSC; assay: HbF+ cell % in human CD34+ HSC by FACS; format: cell-based; conditions: 7 days of treatment
# Procedure: as §1
# After 7 days of treatment, the cells were collected and stained with PE-conjugated Mouse Anti-Human Fetal Hemoglobin (BD, 560041). The percentage of HbF+ cells were quantified by FACS. […] 73 respectively. […] 73 where HbF+ cell % was 2.58-folds of the vehicle group (p<0.0001). The % of HbF+ cells was 1.82-folds of the vehicle group when the cells were treated with 33 mM Hydroxyurea.
# [2] = test system: TNBS induced IBD in Balb/c mice; assay: TNBS induced inflammatory bowel disease (IBD) model; format: in vivo
# Procedure: Female Balb/c mice (8 weeks old) were obtained from Beijing Vital River Laboratory Animal Co. Ltd. Animals, and then housed and handled in a temperature-controlled environment with a 12-h light/12-h dark cycle. A total of 30 mice were assigned to 3 groups by randomization based on body weight.
# On Day 0, the mice weighing 18-20 g were anesthetized with […] (Easycheck, M2910), and then further intra-rectally injected 100 μL 1.5% TNBS solution (final concentration in 50% ethanol) in the vehicle group and treatment groups. For the Sham group, the mice were intra-rectally injected with 50% ethanol at the same volume.
# Mice in Group 1 and Group 2 were treated with vehicle for 8 days (po, qd, from day −1 to day 6). Mice in Group 3 were treated with 90 mg/kg Cpd. 73 for 8 days (po, qd, from day −1 to day 6). The protocols and procedures involving the care and use of animals were approved by the Institutional Animal Care and Use Committee (IACUC) at WuxiApptec (Shanghai, China).
# Clinical signs of IBD were assessed every day based on the score of disease activity index (DAI) which was evaluated from three parameters using a scoring system from 0 to 4: stool consistency (0, normal stool; 1, soft but still formed stool; 2, soft and not formed stool; 3, very soft and wet stool; 4, watery diarrhea), bleeding score (0, negative hemoccult; 1, weak positive hemoccult; 2, positive hemoccult; 3, blood trace in stool visible; 4, gross rectal bleeding) and body weight loss (0, no body weight loos; 1, 1-5% body weight loss; 2, 6-10% body weight loss; 3, 11-20% body weight loss; 4, >20% body weight loss).
# At the end of experiment (day 7), the animals were euthanized, dissected and the entire colon was quickly removed and gently cleared of feces.
# At the end of experiment, the animals were euthanized, and blood was collected immediately by the heart punctures and used for whole blood cell analysis.
# At the end of the study (day 7), the cell suspensions from sham control, model control and Cpd. 73 treatment groups were obtained from mesenteric lymph nodes (MLN). Cells were stained with the following florescence-labelled antibodies: APC-Cy7-conjugated anti-mouse CD45, BV510-conjugated anti-mouse CD3e, AF700-conjugated anti-mouse CD8a, BUV395-conjugated anti-mouse CD4, BV421-conjugated anti-mouse CD25, FITC-conjugated anti-mouse Foxp3, BV650-conjugated anti-mouse IFN-γ, APC-conjugated anti-mouse B220, BV395-conjugated anti-mouse CD3e, BV605-conjugated anti-mouse CD11b, BB700-conjugated anti-mouse CD11c, AF488-conjugated anti-mouse MHCII, BV421-conjugated anti-mouse NK1.1, BV510-conjugated anti-mouse Ly6G, PE-Cy7-conjugated anti-mouse CD107a and PE-CF594-conjugated anti-mouse F4/80. All cells were primarily gated on single and live lymphocytes based on forward scatter (FCS), side scatter (SSC) and live/dead staining buffer. Samples were analyzed on a flow cytometer (BD LSRFortessa) to count the percentage of each subtype of lymphocytes.
# At the end of the study (day 7), all the animals were sacrificed by CO2. The colon was Swiss-rolled and fixed with neutralized PFA followed by H&E staining. After that, the pathologists from WuXi clinical pathological analysis platform, who were blinded to animal ID, reviewed the H&E staining and scored. The pathological scoring standards were as follows: crypt architecture (normal, 0; severe crypt distortion with loss of entire crypts, 3), degree of inflammatory cell infiltration (normal, 0; dense inflammatory infiltrate, 3), muscle thickening (normal, 0; marked muscle thickening present, 3), goblet cell depletion (absent, 0; present, 1) and crypt abscess (absent, 0; present, 1).
# The fixed colon was stained with Masson's Trichrome to assess the collagen fibers in colon tissue. The Masson's Trichrome staining procedures was followed the standard protocol. After that, the pathological doctors from WuXi clinical pathological analysis platform reviewed the whole slices and scored blinded with animal information. […]
# [3] = 90 mg/kg po qd day −1 to day 6, end of experiment, vs vehicle
# [4] = 90 mg/kg po qd day −1 to day 6, vs vehicle
# [5] = 90 mg/kg, day 7, flow cytometry, vs vehicle control
compound,measurement,setting,value
"CC(C)N1Cc2cc(C(F)(F)F)ncc2-c2cnc(NCc3c(F)ccc4c3CCO4)n3cnc(c23)C1=O [Cpd. 73, 12-(((5-fluoro-2,3-dihydrobenzofuran-4-yl)methyl)amino)-4-isopropyl-7-(trifluoromethyl)-4,5-dihydro-3H-2,4,8,11,12a-pentaazabenzo[4,5]cycloocta[1,2,3-cd]inden-3-one]","cellular HbF concentration, folds of the vehicle group",HbF in human CD34+ HSC; 0.01 μM,1.27 folds
same,"cellular HbF concentration, folds of the vehicle group",HbF in human CD34+ HSC; 0.03 μM,1.39 folds
same,"cellular HbF concentration, folds of the vehicle group",HbF in human CD34+ HSC; 0.1 μM,1.52 folds
same,"cellular HbF concentration, folds of the vehicle group",HbF in human CD34+ HSC; 0.3 μM,1.58 folds
same,"cellular HbF concentration, folds of the vehicle group","HbF in human CD34+ HSC; 1.0 μM, maximal effect, p<0.01",1.69 folds
same,"% of HbF+ cells, folds of the vehicle group",[1]; 0.01 μM,0.73 folds
same,"% of HbF+ cells, folds of the vehicle group",[1]; 0.03 μM,0.86 folds
same,"% of HbF+ cells, folds of the vehicle group",[1]; 0.1 μM,1.50 folds
same,"% of HbF+ cells, folds of the vehicle group",[1]; 0.3 μM,1.73 folds
same,"% of HbF+ cells, folds of the vehicle group","[1]; 1.0 μM, maximal effect, p<0.0001",2.58 folds
same,colon length,"[2]; 90 mg/kg po qd day −1 to day 6, day 7, vehicle 6.26±0.17 cm",8.79±0.22 cm
same,"pathological score (H&E, colon)","[2]; 90 mg/kg po qd day −1 to day 6, day 7, vehicle 10.33±0.35",1.70±0.37
same,colon weight,"[2]; 90 mg/kg po qd day −1 to day 6, day 7, vehicle 336.8±26.68 mg",213.8 ± 6.08 mg
same,anemia (red blood cells and hemoglobin in peripheral blood),"[2]; 90 mg/kg po qd day −1 to day 6, end of experiment",improved
same,cell number of monocytes in peripheral blood,[2]; [3],significantly reduced
same,cell number of neutrophils in peripheral blood,[2]; [3],significantly reduced
same,"fibrosis score (Masson's Trichrome, colon)","[2]; 90 mg/kg po qd day −1 to day 6, vehicle 4.33±0.30",1.10±0.17
same,DAI score,[2]; [4],significantly reducing
same,body weight loss,[2]; [4],improving
same,percentage of IFN-γ secreting CD4+ T cells (Th1 cells) in MLN,[2]; [5],significantly reduced
same,percentage of NK cells in MLN,[2]; [5],significantly reduced
same,percentage of activated NK cells in MLN,[2]; [5],significantly reduced
same,percentage of macrophages in MLN,[2]; [5],significantly reduced
same,percentage of neutrophils in mesenteric lymph nodes (MLN),[2]; [5],significantly reduced
